The values below are quoted from earlier work in patent US8614228B2, “Quinone prodrug compositions and methods of use” (ArQule, Inc., priority 2004, dated 2013).

The data set relates to normal fresh or proliferating human PBMC.

Regarding `CC1(C)CCC2=C(O1)c1ccccc1C(=O)C2=O` [β-lapachone, 3,4-dihydro-2,2-dimethyl-2H-naphtho[1,2-b]pyran-5,6-dione], the cytotoxic effects result was “No cytotoxic effects were observed”.
